Data from ChEMBL document CHEMBL1136384, “Design, synthesis and biological evaluation of hetaryl-nucleoside derivatives as inhibitors of chitin synthase” (Bioorg Med Chem Lett, 2003).

How the values were obtained:
[1] = Compound tested for the inhibition of chitin synthase using Saccharomyces cerevisiae cells (X2180 strain)
Cryptococcus neoformans = experiment: Inhibitory activity tested against Cryptococcus neoformans at 256 ug/mL concentration; format: functional
Aspergillus fumigatus = experiment: Inhibitory activity tested against Aspergillus fumigatus at 256 ug/mL concentration; format: functional
Candida albicans = experiment: Inhibitory activity tested against Candida albicans at 256 ug/mL concentration; format: functional
Saccharomyces cerevisiae = experiment: Inhibitory activity tested against Saccharomyces cerevisiae at 256 ug/mL concentration; format: functional

Structure (SMILES)	IC50 [1]	Ki [1]	further results
O=C(CC(=O)OC[C@H]1OC(n2ccc(=O)[nH]c2=O)[C@H](O)[C@@H]1O)OCc1ccc(O)cn1 (stereo partly specified)	2800 µM	–	–
C[C@@H]([C@H](N)C(=O)N[C@H](C(=O)O)[C@H]1O[C@@H](n2ccc(=O)[nH]c2=O)[C@H](O)[C@@H]1O)[C@H](O)c1ccc(O)cn1 (stereo in doubt) [NIKKOMYCIN]	0.5 µM	0.34 µM	–
O=C(NC[C@H]1OC(n2ccc(=O)[nH]c2=O)[C@H](O)[C@@H]1O)[C@H](O)[C@@H](O)C(=O)OCc1ccc(O)cn1 (stereo partly specified)	3200 µM	–	–
O=c1ccn([C@@H]2O[C@H](CO[C@@H]3O[C@@H](CO)[C@@H](OCc4ccc5ccccc5n4)[C@H](O)[C@@H]3O)[C@@H](O)[C@H]2O)c(=O)[nH]1	2000 µM	–	–
O=c1ccn([C@@H]2O[C@H](CO[C@@H]3O[C@@H](CO)[C@@H](O)[C@H](OCc4ccc5ccccc5n4)[C@@H]3O)[C@@H](O)[C@H]2O)c(=O)[nH]1	800 µM	250 µM	–
O=c1ccn([C@@H]2O[C@H](CO[C@@H]3O[C@@H](COCc4ccc5ccccc5n4)[C@@H](O)[C@H](O)[C@@H]3O)[C@@H](O)[C@H]2O)c(=O)[nH]1	3200 µM	–	inhibition at 256 µg/mL (Cryptococcus neoformans): 80%; inhibition at 256 µg/mL (Aspergillus fumigatus): 30%; inhibition at 256 µg/mL (Candida albicans): 30%; inhibition (Saccharomyces cerevisiae): 30%
COCOc1ccc(COC(=O)CC(=O)OC[C@H]2OC(n3ccc(=O)[nH]c3=O)[C@H](O)[C@@H]2O)nc1 (stereo partly specified)	10800 µM	–	–
C[C@@H]([C@H](N)C(=O)N[C@H](C(=O)O)[C@H]1O[C@@H](n2ccc(=O)[nH]c2=O)[C@H](O)[C@@H]1O)[C@H](O)c1ccc(O)cn1 [NIKKOMYCIN]	0.34 µM	–	–
O=C(NC[C@@H]1OC(n2ccc(=O)[nH]c2=O)[C@H](O)[C@@H]1O)[C@H](O)[C@@H](O)C(=O)OCc1ccc2ccccc2n1 (stereo partly specified)	2000 µM	800 µM	–
